Patent publication US7691572B2, “Method and kit for detecting resistance to antiviral drugs” (priority 1998, dated 2010)
Where two headings read alike, the source gives them in different places.

Legend:
Type in all cases: biochemical
HIV-1 RT [1] = experiment: Amp-RT assay, AZT-TP and other NRTI-TPs, reference viruses; conditions: for % inhibition (SEM) / inhibition of RT activity / inhibition of activity: 1 μM AZT-TP; for inhibition of RT activity: ~1.882×10^−7 to ~1.882×10^−5 units of RT activity per ml
[2] = target: T1, recombinant p66/p51 HIV-1 reverse transcriptase (Human immunodeficiency virus type 1 group M subtype B, UniProt P04585); experiment: 3HdCTP incorporation assay with recombinant RT; conditions: read-out: concentration resulting in 50% inhibition of incorporation of 3HdCTP; (rI)n-dC12-18 template primer
T1 construct: recombinant p66/p51 HIV-1 reverse transcriptase; purchased Biotechnology General, Rehovot, Israel
Method: Wild type HIV-1SUM9, and multiple dideoxy nucleoside-resistant HIV-1SUM8 (Q151M mutation), HIV-1SUM12 (F77L/F116Y/Q151M) and HIV-1SUM13 (A62V/V751/F77L/F116Y/Q151M) MICs were provided by Dr. Mitsuya as described by Shirasaka et al., Proc. Natl. Acad. Sci. USA 92: 2398-2402 (1995). The synthesis and preparation of 3TC-TP were carried out as described by Schinazi et al., Antimicrob. Agents Chemother. 36: 2423-2431 (1992). The crude 3TC-5-TP was purified by FPLC using a HiLoad 26/10Q Sepharose Fast Flow™ Pharmacia chromatography column (Pharmacia, Piscataway, N.J.) and gradient of TEAE buffer (pH 7.0). The compound was characterized by UV spectroscopy, proton and phosphorous NMR, mass spectroscopy and HPLC.

HIV-1 RT [3] = conditions: for inhibition of RT activity / RT activity inhibition / Phenotype / % inhibition: 1 μM AZT-TP
Text: Four groups of archived HIV-1 specimens with known genotypes were selected for assay validation. These included WT, MNR, MNR carrying unrelated resistance mutations, and non-MNR specimens carrying classical AZT resistance mutations (Schmit et al., “Multiple drug resistance to nucleoside analogues and nonnucleoside reverse transcriptase inhibitors in an efficiently replicating human immunodeficiency virus type 1 patient strain,” J. Infect. Dis. 174: 962-968 (1996); Winters et al., “A 6-base pair insert in the reverse transcriptase gene of human immunodeficiency virus type 1 confers resistance to multiple nucleoside inhibitors,” J. Clin. Invest. 102: 1769-1775 (1998); Adje et al., “High prevalence of genotypic and phenotypic HIV-1 drug-resistant strains among patients receiving antiretroviral therapy in Abidjan, Cote d'Ivoire,” J. Acquired Immune Deficiency Syndromes 26: 501-506 (2001); Weinstock et al., “Prevalence of mutations associated with reduced antiretroviral drug susceptibility among human immunodeficiency virus type 1 seroconverters in the United States, 1993-1998,” J. Infect. Dis. 182: 330-333 (2000)). Forty-four samples were selected which comprised 7 viral stocks and 37 plasma samples obtained from 34 HIV-1-infected persons.

[4] = MNR HIV-1SUM12 (F77L, F116Y, Q151M)
[5] = MNR HIV-1SUM13 (A62V, V75I, F77L, F116Y, Q151M)
[6] = classical AZT-resistant HIV-1 R598 (D67N, V106A, L210W, L214F, T215Y)
[7] = classical AZT-resistant HIV-1RTMC/MT2 (D67N, K70R, T215F, K219Q)
[8] = specimen no. 40 (T215Y and T69S-EA insertions)

Nc1ccn([C@@H]2CS[C@H](COP(=O)(O)OP(=O)(O)OP(=O)(O)O)O2)c(=O)n1 [3TC-TP, 3TC-5′-triphosphate]
IC50 (HIV-1 RT [1]; MNR HIV-1SUM8 (Q151M)): 900 nM
fold resistance (IC50) as compared to the mean IC values of WT HIV-1 (HIV-1 RT [1]; MNR HIV-1SUM8 (Q151M)): (1.8) fold
IC50 (HIV-1 RT [1]; [4]): 2700 nM
fold resistance (IC50) as compared to the mean IC values of WT HIV-1 (HIV-1 RT [1]; [4]): (5.4) fold
IC50 (HIV-1 RT [1]; [5]): 3300 nM
fold resistance (IC50) as compared to the mean IC values of WT HIV-1 (HIV-1 RT [1]; [5]): (6.6) fold
IC50 (HIV-1 RT [1]; WT HIV-1SUM9): 400 nM
IC50 (HIV-1 RT [1]; WT HIV-1xxBRUpitt): 600 nM
IC50 [2]: 1300 nM

Cc1cn([C@H]2C[C@H](N=[N+]=[N-])[C@@H](COP(=O)(O)OP(=O)(O)OP(=O)(O)O)O2)c(=O)[nH]c1=O [AZT-TP, AZT-triphosphate]
% inhibition (SEM) (HIV-1 RT [1]; HIV-1LAI, WT): 99.9 (±0.02) %
% inhibition (SEM) (HIV-1 RT [1]; HIV-1M184Vpitt, M184V): 91.1 (±3.3) %
% inhibition (SEM) (HIV-1 RT [1]; HIV-1R598, D67N, V106A, L210W, L214F, T215Y): 97.8 (±2.2) %
% inhibition (SEM) (HIV-1 RT [1]; HIV-1RTMC/MT-2, D67N, K70R, T215F, K219Q): 91.5 (±8.5) %
% inhibition (SEM) (HIV-1 RT [1]; HIV-1RTMDRI/MT-2, M41L, L74V, V106A, T215Y): 94.6 (±5.4) %
% inhibition (SEM) (HIV-1 RT [1]; HIV-1RTMF/MT-2, T215Y): 96 (±4) %
% inhibition (SEM) (HIV-1 RT [1]; HIV-1SUM8, Q151M): 26.6 (±6.1) %
inhibition of RT activity (HIV-1 RT [1]; HIV-1SUM8): 50%
% inhibition (SEM) (HIV-1 RT [1]; HIV-1SUM9, WT): 95.8 (±1.4) %
% inhibition (SEM) (HIV-1 RT [1]; HIV-1SUM12, F77L, F116V, Q151M): 13.1 (±5.5) %
inhibition of RT activity (HIV-1 RT [1]; HIV-1SUM12 and HIV-1SUM13): < 15%
% inhibition (SEM) (HIV-1 RT [1]; HIV-1SUM13, A62V, V75I, F77L, F116Y, Q151M): 12.9 (±2.8) %
% inhibition (SEM) (HIV-1 RT [1]; HIV-1xxBRUpitt, WT): 93.5 (±6.5) %
inhibition of RT activity (HIV-1 RT [1]; WT HIV-1SUM9): > 85%
inhibition of activity (HIV-1 RT [1]; WT RT (HIV-1SUM9) alone): 91%
inhibition of activity (HIV-1 RT [1]; mixture containing 10% MNR HIV-1SUM13 in WT HIV-1SUM9): 17%
inhibition of activity (HIV-1 RT [1]; mixture containing 30% or more of MNR HIV-1): No inhibition
reduction of the level of DNA products (HIV-1 RT [1]; 1 μM AZT-triphosphate, MNR strains): ≤ 30%
reduction of the amount of DNA products (HIV-1 RT [1]; 1 μM AZT-triphosphate, wild-type and classical reverse transcriptase mutant strains): ≥ 90%
IC50 (HIV-1 RT [1]; MNR HIV-1SUM8 (Q151M)): 2500 nM
IC90 (HIV-1 RT [1]; MNR HIV-1SUM8 (Q151M)): 4500 nM
fold resistance (IC90) as compared to the mean IC values of WT HIV-1 (HIV-1 RT [1]; MNR HIV-1SUM8 (Q151M)): (4.7) fold
IC50 (HIV-1 RT [1]; [4]): 11000 nM
IC90 (HIV-1 RT [1]; [4]): 18000 nM
fold resistance (IC90) as compared to the mean IC values of WT HIV-1 (HIV-1 RT [1]; [4]): (18.6) fold
IC50 (HIV-1 RT [1]; [5]): 18000 nM
IC90 (HIV-1 RT [1]; [5]): 45000 nM
fold resistance (IC90) as compared to the mean IC values of WT HIV-1 (HIV-1 RT [1]; [5]): (46.6) fold
IC50 (HIV-1 RT [1]; WT HIV-1LAI): 500 nM
IC90 (HIV-1 RT [1]; WT HIV-1LAI): 900 nM
IC50 (HIV-1 RT [1]; WT HIV-1SUM9): 500 nM
IC90 (HIV-1 RT [1]; WT HIV-1SUM9): 1000 nM
IC50 (HIV-1 RT [1]; [6]): 500 nM
IC90 (HIV-1 RT [1]; [6]): 1000 nM
IC50 (HIV-1 RT [1]; [7]): 500 nM
IC90 (HIV-1 RT [1]; [7]): 1000 nM
inhibition of RT activity (HIV-1 RT [3]; 9 specimens containing classical AZT-resistant mutations): 87%
RT activity inhibition (HIV-1 RT [3]; 23 specimens with MNR genotypes): 0-62%
RT activity inhibition (HIV-1 RT [3]; HIV-1 RTs that had more MNR-related mutations): 0-16%
inhibition of RT activity (HIV-1 RT [3]; all 12 specimens with WT genotype): 93%
Phenotype (HIV-1 RT [3]; specimen 12): S
% inhibition (HIV-1 RT [3]; specimen 12, WT): 100%
Phenotype (HIV-1 RT [3]; specimen 13): R
% inhibition (HIV-1 RT [3]; specimen 13, S68G, Q151M): 40%
Phenotype (HIV-1 RT [3]; specimen 14): R
% inhibition (HIV-1 RT [3]; specimen 14, A62A/V, S68G, V75I, F77L, F116Y, Q151M): 6%
Phenotype (HIV-1 RT [3]; specimen 15): R
% inhibition (HIV-1 RT [3]; specimen 15, S68G, V75I, F77L, K103N, F116Y, Q151M, M184V): 0%
Phenotype (HIV-1 RT [3]; specimen 16): R
% inhibition (HIV-1 RT [3]; specimen 16, Q151Q/M): 38%
% inhibition (HIV-1 RT [3]; specimen 17, Q151M): 23%
% inhibition (HIV-1 RT [3]; specimen 18, Q151M): 57%
Phenotype (HIV-1 RT [3]; specimen 26): R
% inhibition (HIV-1 RT [3]; specimen 26, A62V, V75T, Q151M, M184I/M): 11%
% inhibition (HIV-1 RT [3]; specimen 27, V75I, F77L, F116Y, Q151M): 0%
% inhibition (HIV-1 RT [3]; specimen 28, V75I, F77L, F116Y, Q151M): 8%
Phenotype (HIV-1 RT [3]; specimen 29): R
% inhibition (HIV-1 RT [3]; specimen 29, A62V, V75I, F77L, F116Y, Q151M, M184V): 0%
Phenotype (HIV-1 RT [3]; specimen 30): R
% inhibition (HIV-1 RT [3]; specimen 30, K65R, K70R, V75I, F77L, F116Y, Q151M): 13%
Phenotype (HIV-1 RT [3]; specimen 31): R
% inhibition (HIV-1 RT [3]; specimen 31, D67N, Q151M, M184V): 17%
Phenotype (HIV-1 RT [3]; specimen 32): R
% inhibition (HIV-1 RT [3]; specimen 32, V75I, F77L, F116Y, Q151M, M184V): 26%
Phenotype (HIV-1 RT [3]; specimen 35): R
% inhibition (HIV-1 RT [3]; specimen 35, F116Y, Q151M, T215Y, V35I, I135T): 62%
Phenotype (HIV-1 RT [3]; specimen 36): S
% inhibition (HIV-1 RT [3]; specimen 36, D67N, L210W, L214F, T215Y): 95.6%
Phenotype (HIV-1 RT [3]; specimen 37): S
% inhibition (HIV-1 RT [3]; specimen 37, A62V, K70R, L74V, K103N, T215F): 92.6%
Phenotype (HIV-1 RT [3]; specimen 38): S
Phenotype (HIV-1 RT [3]; specimen 39): S
% inhibition (HIV-1 RT [3]; specimen 39, M41L, M184V, L214F, T215Y): 89.1%
Phenotype (HIV-1 RT [3]; specimen 44): S
Phenotype (HIV-1 RT [3]; specimens 1-11, WT): S
% inhibition (HIV-1 RT [3]; specimens 1-11, recent seroconverters, WT): 93-100%
Phenotype (HIV-1 RT [3]; specimens 17, 18): R
Phenotype (HIV-1 RT [3]; specimens 19-21): R
% inhibition (HIV-1 RT [3]; specimens 19-21, A62V, V75I, F77L, F116Y, Q151M): 4-16%
Phenotype (HIV-1 RT [3]; specimens 22-25): R
% inhibition (HIV-1 RT [3]; specimens 22-25, A62V, S68G, V75I, F77L, F116Y, Q151M): 0%
Phenotype (HIV-1 RT [3]; specimens 27-28): R
Phenotype (HIV-1 RT [3]; specimens 33, 34): R
Phenotype (HIV-1 RT [3]; specimens 40-43): S
% inhibition (HIV-1 RT [3]; specimens 40-43, T215Y, T69S-insertions EA/SS/SG): 87-97%
IC50 compared to reference WT HIV-1 isolates (HIV-1 RT [3]; plasma specimen no. 25 (A62V, S68G, V75I, F77L, F116Y, Q151M)): 44 fold
IC50 (HIV-1 RT [3]; [8]): 400 nM
IC90 (HIV-1 RT [3]; [8]): 1000 nM
